Measurements published in ChEMBL document CHEMBL3526083, “Prediction of relative in vivo metabolite exposure from in vitro data using two model drugs: dextromethorphan and omeprazole” (Drug Metab Dispos, 2012).

Tests used:
[1] = biological target: T1, UDP-glucuronosyltransferase 1A4 (Homo sapiens, UniProt P22310); experiment: Drug metabolism assessed as recombinat UGT1A4 (unknown origin) -mediated dextrophan-O-glucuronide formation; type: ADME
T1 sequence (P22310 whole entry): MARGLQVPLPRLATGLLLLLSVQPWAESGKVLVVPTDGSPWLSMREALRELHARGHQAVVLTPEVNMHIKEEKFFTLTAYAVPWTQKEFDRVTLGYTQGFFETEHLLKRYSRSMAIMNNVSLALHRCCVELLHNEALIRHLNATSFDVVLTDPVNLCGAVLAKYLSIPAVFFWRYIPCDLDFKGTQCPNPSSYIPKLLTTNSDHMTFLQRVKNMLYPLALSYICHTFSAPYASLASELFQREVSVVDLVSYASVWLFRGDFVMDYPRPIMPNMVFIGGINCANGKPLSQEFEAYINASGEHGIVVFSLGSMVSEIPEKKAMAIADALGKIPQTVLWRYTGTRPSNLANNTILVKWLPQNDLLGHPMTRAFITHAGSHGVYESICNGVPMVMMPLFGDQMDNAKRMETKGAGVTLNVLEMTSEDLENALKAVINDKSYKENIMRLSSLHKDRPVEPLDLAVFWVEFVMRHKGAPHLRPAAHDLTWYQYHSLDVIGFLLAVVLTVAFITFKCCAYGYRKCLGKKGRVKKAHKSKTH

[2] = biological target: T2, UDP-glucuronosyltransferase 1A8 (Homo sapiens, UniProt Q9HAW9); experiment: Drug metabolism assessed as recombinat UGT1A8 (unknown origin) -mediated dextrophan-O-glucuronide formation; type: ADME
T2 sequence (Q9HAW9 whole entry): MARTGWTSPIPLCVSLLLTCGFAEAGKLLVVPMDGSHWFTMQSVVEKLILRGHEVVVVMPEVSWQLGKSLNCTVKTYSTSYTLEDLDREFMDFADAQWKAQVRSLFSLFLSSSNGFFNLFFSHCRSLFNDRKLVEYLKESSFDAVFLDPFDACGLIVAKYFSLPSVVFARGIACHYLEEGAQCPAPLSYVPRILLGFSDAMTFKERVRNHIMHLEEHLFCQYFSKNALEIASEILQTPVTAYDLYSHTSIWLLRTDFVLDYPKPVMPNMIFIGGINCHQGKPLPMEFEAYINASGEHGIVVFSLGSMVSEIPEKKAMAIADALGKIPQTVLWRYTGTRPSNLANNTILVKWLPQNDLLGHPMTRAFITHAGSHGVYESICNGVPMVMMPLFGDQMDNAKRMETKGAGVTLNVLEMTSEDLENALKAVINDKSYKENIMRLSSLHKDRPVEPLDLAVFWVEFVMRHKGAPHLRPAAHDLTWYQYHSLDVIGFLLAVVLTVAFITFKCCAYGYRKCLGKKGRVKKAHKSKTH

[3] = biological target: T3, UDP-glucuronosyltransferase 1A9 (Homo sapiens, UniProt O60656); experiment: Drug metabolism assessed as recombinat UGT1A9 (unknown origin) -mediated dextrophan-O-glucuronide formation; type: ADME
T3 sequence (O60656 whole entry): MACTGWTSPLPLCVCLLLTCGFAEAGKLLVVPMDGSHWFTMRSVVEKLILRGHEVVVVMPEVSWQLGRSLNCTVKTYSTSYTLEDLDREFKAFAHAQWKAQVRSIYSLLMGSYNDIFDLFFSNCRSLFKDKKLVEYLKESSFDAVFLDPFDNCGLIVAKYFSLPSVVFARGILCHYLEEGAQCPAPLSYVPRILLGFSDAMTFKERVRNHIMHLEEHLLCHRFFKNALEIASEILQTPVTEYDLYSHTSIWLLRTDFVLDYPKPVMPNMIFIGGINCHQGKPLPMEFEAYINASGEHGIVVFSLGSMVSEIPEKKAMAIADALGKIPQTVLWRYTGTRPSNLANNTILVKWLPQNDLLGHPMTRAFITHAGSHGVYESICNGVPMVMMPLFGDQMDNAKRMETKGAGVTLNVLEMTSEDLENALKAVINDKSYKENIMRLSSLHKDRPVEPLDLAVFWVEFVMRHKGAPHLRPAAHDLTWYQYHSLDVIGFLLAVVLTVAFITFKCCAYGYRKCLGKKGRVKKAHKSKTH

[4] = biological target: T4, UDP-glucuronosyltransferase 1A10 (Homo sapiens, UniProt Q9HAW8); experiment: Drug metabolism assessed as recombinat UGT1A10 (unknown origin) -mediated dextrophan-O-glucuronide formation; type: ADME
T4 sequence (Q9HAW8 whole entry): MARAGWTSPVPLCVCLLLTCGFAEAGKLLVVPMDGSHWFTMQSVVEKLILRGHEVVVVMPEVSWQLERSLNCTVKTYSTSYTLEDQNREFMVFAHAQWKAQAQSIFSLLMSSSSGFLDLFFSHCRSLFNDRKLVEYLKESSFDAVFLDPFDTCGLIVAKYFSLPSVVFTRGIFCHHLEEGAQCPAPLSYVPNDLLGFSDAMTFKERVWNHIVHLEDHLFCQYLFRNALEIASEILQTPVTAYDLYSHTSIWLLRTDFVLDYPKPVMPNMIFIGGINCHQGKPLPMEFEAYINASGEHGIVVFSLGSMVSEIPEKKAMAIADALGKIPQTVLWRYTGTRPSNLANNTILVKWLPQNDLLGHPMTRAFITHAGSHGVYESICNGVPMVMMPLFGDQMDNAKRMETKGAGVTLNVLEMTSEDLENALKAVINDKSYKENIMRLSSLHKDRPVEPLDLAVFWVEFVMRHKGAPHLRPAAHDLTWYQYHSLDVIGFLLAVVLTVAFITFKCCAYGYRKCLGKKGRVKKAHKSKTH

Homo sapiens = experiment: Ratio of AUC for compound to dexttomethorphan in human treated with 30 to 60 mg, po dexttomethorphan; type: ADME, organism-based; settings: in vivo
Liver microsome [5] = experiment: Drug metabolism in human liver microsomes assessed as dextrophan-O-glucuronide formation measured as microsomal fraction unbound; type: ADME
Liver microsome [6] = experiment: Drug metabolism in human liver microsomes assessed as dextrophan-O-glucuronide formation in presence of 2% BSA; type: ADME
Liver microsome [7] = experiment: Drug metabolism in human liver microsomes assessed as dextrophan-O-glucuronide formation measured as plasma fraction unbound in presence of 2% BSA; type: ADME
[8] = biological target: T5, UDP-glucuronosyltransferase 2B15 (Homo sapiens, UniProt P54855); experiment: Drug metabolism assessed as recombinat UGT2B15 (unknown origin) -mediated dextrophan-O-glucuronide formation; type: ADME
T5 sequence (P54855 whole entry): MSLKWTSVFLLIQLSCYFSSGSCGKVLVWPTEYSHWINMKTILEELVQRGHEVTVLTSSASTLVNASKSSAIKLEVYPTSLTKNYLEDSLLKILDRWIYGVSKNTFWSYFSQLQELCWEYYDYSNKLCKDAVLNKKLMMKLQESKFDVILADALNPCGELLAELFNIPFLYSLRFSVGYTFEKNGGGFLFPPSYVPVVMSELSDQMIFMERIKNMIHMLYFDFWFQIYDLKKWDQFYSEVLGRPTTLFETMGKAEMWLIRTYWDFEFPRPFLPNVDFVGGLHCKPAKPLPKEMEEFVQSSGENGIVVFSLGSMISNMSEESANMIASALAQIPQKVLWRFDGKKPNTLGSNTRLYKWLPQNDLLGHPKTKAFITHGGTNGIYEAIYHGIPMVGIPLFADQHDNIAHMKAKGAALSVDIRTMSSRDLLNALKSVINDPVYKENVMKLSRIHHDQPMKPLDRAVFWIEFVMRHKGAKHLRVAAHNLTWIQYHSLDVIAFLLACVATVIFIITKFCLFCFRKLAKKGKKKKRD

In the case of `CN1CC[C@@]23CCCC[C@@H]2[C@@H]1Cc1ccc(O)cc13` [DEXTRORPHAN], the Drug metabolism [1] is reported as “metabolite_not_detected”, the Drug metabolism [2] is reported as “metabolite_not_detected” and the Drug metabolism [3] is reported as “metabolite_not_detected”. For the same compound, the Drug metabolism [4] was “metabolite_not_detected”, the “Ratio AUC” value (Homo sapiens) was 0.61 and the Fu (Liver microsome [5]) was 1. The Km (Liver microsome [6]) was 210 µM, the Fu (Liver microsome [7]) was 0.55 and the Drug metabolism [8] was “metabolite_detected”.
